Active and inactive are the calls of the source.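 How the source made its calls: active means signal drops with AC50 under 10 µM, fitted no higher than twice the top valid tested dose; inactive means effect in the opposite direction, plus the rest.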

In one assay the test system is NIH3T3 viability, CellTiter-Glo ATP luminescence, 48 h. As to the kind of experiment: toxicity toward NIH3T3 fibroblasts – cell-based, plate reader, dry powder, cytotoxicity control, dose response (AID 743405).
Details: not given
In the case of `Cc1c(C)c2ccc(OCC(=O)Nc3ccccn3)c(C)c2oc1=O`, the concentration at half-maximal activity (AC50) (as a rule, the concentration giving half of the maximal activity seen) is 36.4 µM.
Still for that read-out and setting: next, `Cc1ccc(-c2cn3cc(C)ccc3n2)cc1`: > 70 µM (inactive); `COc1ccc(OCc2cccc(C(=O)O)c2)cc1`: > 70 µM (inactive); `COc1c(CC=C(C)C)cc(C2CC(=O)c3c(O)cc(O)cc3O2)cc1CC=C(C)C` (stereo not drawn): 32.9 µM.
Still for that read-out and setting: next, `Cc1cccc(CSc2cccc3cccnc23)c1`: > 70 µM (inactive).

Tested on in a further assay: not listed separately
The assay is described as above. Particulars: NIH3T3 viability, CellTiter-Glo ATP luminescence, 48 h; at 35 µM (top of the series). (ATP-based viability assays read luminescence as a measure of living cells.)
Turning to `COc1ccc(CNC(=O)C(c2ccc(C)cc2)N(Cc2cccs2)C(=O)c2ccc3c(c2)OCCO3)cc1` (stereo not drawn), the activity change, negative = cytotoxicity is -4.92% (inactive).
As for `COc1ccc(-n2ncc3c(N4CCCCC4)ncnc32)cc1`, the activity change, negative = cytotoxicity is -2.9% (inactive).
For the molecule `O=C(c1n[nH]c(=O)c2ccccc12)N1CCN(C2c3ccccc3-c3ccccc32)CC1`, the activity change, negative = cytotoxicity is 8.43% (inactive).
Same read-out and setting: next, `CCOC(=O)Cn1c(S(=O)(=O)Cc2ccccc2Cl)nc(-c2ccccc2)c1-c1ccccc1`: 3.41% (inactive).
Consider `O=C1S/C(=C\c2ccc(N3CCOCC3)o2)C(=O)N1Cc1c(F)cccc1Cl`, for which the activity change, negative = cytotoxicity was 92.2% (inactive).
With `Cc1nc(SCC(=O)Nc2nc3ccccc3s2)c(C#N)c(C)c1C`, the activity change, negative = cytotoxicity was -9.06% (inactive).
The same measure, in the same setting: next, `Cc1cc(S(=O)(=O)NCc2ccncc2)c(C)cc1Br`: -1.39% (inactive); `O=C(NCCc1ccccc1)c1ccc2c(c1)OCCO2`: 5.21% (inactive).
For the molecule `Cc1ccc(C(=O)Nc2cnc3ccccc3c2)cc1`, the activity change, negative = cytotoxicity was -0.872% (inactive).
As to `O=C(CN1C(=O)c2ccccc2S1(=O)=O)c1ccc(Cl)cc1Cl`, the activity change, negative = cytotoxicity was 5.03% (inactive).
The same measure, in the same setting: the value for `O=C(NCCc1ccccc1)c1ccc2c(c1)OCCCO2` was 4.4% (inactive); that for `CCN(CC)Cc1c(O)ccc2c1O/C(=C\C=C\c1ccccc1)C2=O` was 9.2% (inactive).
In the case of `Cc1ccc(CNC(=O)CSc2c3c(nc4ccc(Cl)cc24)CCCC3)o1`, the activity change, negative = cytotoxicity is 11.2% (inactive).
Still for that read-out and setting: the value for `O=C(O)c1cccc(COc2ccccc2Cl)c1` was -3.99% (inactive).
Same read-out and setting: next, `CCSc1nnc(NC(=O)c2nc(S(=O)(=O)Cc3ccc(F)cc3)ncc2Cl)s1`: 45.4% (inactive); `Cc1cc(C(=O)COC(=O)c2ccccc2O)c(C)n1Cc1cccs1`: -7.18% (inactive); `COc1ccc(CNC(=O)C(C)n2ccc3cc(S(=O)(=O)N4CCCCCC4)ccc32)cc1` (stereo not drawn): -0.861% (inactive).
On the same count and under the same terms, next, `O=C(CN1C(=O)c2ccccc2S1(=O)=O)c1ccc2c(c1)OCCCO2`: 8.65% (inactive).

Source of the values: PubChem BioAssay AID743405 (Broad Institute, 2014).
